Reference: PubChem BioAssay AID330 (DTP/NCI, 2004)
Values joined by “and” are separate entries in the source; they are usually repeats but may differ in a detail not shown here. Equal entries are not always repeated. Inconclusive results and toxic doses are left out.

System: P388 leukemia ip, CD2F1 mice, survival T/C
Experiment: NCI In Vivo Anticancer Drug Screen. Data for tumor model P388 Leukemia (intraperitoneal) in CD2F1 (CDF1) mice
Conditions: endpoint: median survival time, higher = longer survival
Method in brief: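 Mice carrying the transplanted tumor received test compound or vehicle. Survival was recorded in each group, and the value is the treated-group measurement divided by that of the vehicle-treated control group.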

[1] = dose: 50.0 mg/kg/injection, schedule: Q01DX005 (ip), vehicle: saline with Tween-80
[2] = dose: 100.0 mg/kg/injection, schedule: Q01DX005 (ip), vehicle: saline with Tween-80
[3] = dose: 200.0 mg/kg/injection, schedule: Q01DX005 (ip), vehicle: saline with Tween-80
[4] = dose: 30.0 mg/kg/injection, schedule: Q01DX005 (ip), vehicle: saline with Tween-80
[5] = dose: 60.0 mg/kg/injection, schedule: Q01DX005 (ip), vehicle: saline with Tween-80
[6] = dose: 120.0 mg/kg/injection, schedule: Q01DX005 (ip), vehicle: saline with Tween-80
[7] = dose: 240.0 mg/kg/injection, schedule: Q01DX005 (ip), vehicle: saline with Tween-80
[8] = dose: 50.0 mg/kg/injection, schedule: Q01DX005 (ip), vehicle: Klucel (hydroxypropylcellulose) (HPC)
[9] = dose: 100.0 mg/kg/injection, schedule: Q01DX005 (ip), vehicle: Klucel (hydroxypropylcellulose) (HPC)
[10] = dose: 200.0 mg/kg/injection, schedule: Q01DX005 (ip), vehicle: Klucel (hydroxypropylcellulose) (HPC)
[11] = dose: 50.0 mg/kg/injection, schedule: Q01DX009 (ip), vehicle: saline
[12] = dose: 100.0 mg/kg/injection, schedule: Q01DX009 (ip), vehicle: saline
[13] = dose: 200.0 mg/kg/injection, schedule: Q01DX009 (ip), vehicle: saline
[14] = dose: 12.5 mg/kg/injection, schedule: Q01DX009 (ip), vehicle: saline
[15] = dose: 25.0 mg/kg/injection, schedule: Q01DX009 (ip), vehicle: saline

Cc1cc(NC(=O)c2ccc(N=Nc3cc(S(=O)(=O)O)c4ccccc4c3O)cc2)ccc1N=Nc1ccc2cc(S(=O)(=O)O)cc(S(=O)(=O)O)c2c1 was tested, and the T/C (dose: 12.5 mg/kg/injection, schedule: Q01DX005 (ip), vehicle: saline with Tween-80) was 102 % of control and 97 % of control, the T/C (dose: 25.0 mg/kg/injection, schedule: Q01DX005 (ip), vehicle: saline with Tween-80) was 99 % of control and 97 % of control and the T/C [1] was 101 % of control and 111 % of control. The T/C [2] was 102 % of control and 109 % of control and 117 % of control and the T/C [3] was 101 % of control.

In the case of CC(=O)OC1C(OC(=O)c2ccccc2)C=CC2OC21COC(=O)c1ccccc1 (centres undefined), the T/C (dose: 25.0 mg/kg/injection, schedule: Q01DX005 (ip), vehicle: saline + alcohol) is reported as 97 % of control, the T/C (dose: 50.0 mg/kg/injection, schedule: Q01DX005 (ip), vehicle: saline + alcohol) is reported as 105 % of control and the T/C (dose: 100.0 mg/kg/injection, schedule: Q01DX005 (ip), vehicle: saline + alcohol) is reported as 98 % of control. The T/C (dose: 200.0 mg/kg/injection, schedule: Q01DX005 (ip), vehicle: saline + alcohol) was 91 % of control.

With CC(c1ccccc1)n1ccnc1CC#N (centres undefined) the T/C (dose: 15.0 mg/kg/injection, schedule: Q01DX005 (ip), vehicle: saline) was 101 % of control, the T/C (dose: 30.0 mg/kg/injection, schedule: Q01DX005 (ip), vehicle: saline) was 100 % of control and the T/C (dose: 60.0 mg/kg/injection, schedule: Q01DX005 (ip), vehicle: saline) was 99 % of control and 98 % of control.

In the case of COc1c2c(c(OC)c3c1C(=O)c1ccccc1C3=O)C(=O)CCC2, the T/C [4] is reported as 93 % of control, the T/C [5] is reported as 91 % of control and the T/C [6] is reported as 87 % of control. For the same compound, the T/C [7] was 88 % of control.

With Cc1ccc(NC2=NCCS2)cc1Cl the T/C (dose: 50.0 mg/kg/injection, schedule: Q01DX009 (ip), vehicle: Klucel (hydroxypropylcellulose) (HPC)) was 110 % of control, the T/C (dose: 100.0 mg/kg/injection, schedule: Q01DX009 (ip), vehicle: Klucel (hydroxypropylcellulose) (HPC)) was 115 % of control and the T/C (dose: 200.0 mg/kg/injection, schedule: Q01DX009 (ip), vehicle: Klucel (hydroxypropylcellulose) (HPC)) was 89 % of control.

For CC(SSc1ccc(C(C)(C)C)cc1)c1ccccc1 (centres undefined), the T/C [8] was 96 % of control, the T/C [9] was 104 % of control and the T/C [10] was 109 % of control.

For CCOC(=O)C1(C)Sc2ccccc2N=C1c1ccccc1 (centres undefined), the T/C (dose: 60.0 mg/kg/injection, schedule: Q01DX005 (ip), vehicle: saline + Tween-80 + alcohol) was 98 % of control, the T/C (dose: 120.0 mg/kg/injection, schedule: Q01DX005 (ip), vehicle: saline + Tween-80 + alcohol) was 93 % of control and the T/C (dose: 240.0 mg/kg/injection, schedule: Q01DX005 (ip), vehicle: saline + Tween-80 + alcohol) was 89 % of control.

For COCc1ccc(C(N)C(=O)O)cc1 (centres undefined), the T/C (dose: 100.0 mg/kg/injection, schedule: Q01DX001 (ip), vehicle: saline with Tween-80) was 92 % of control and the T/C (dose: 200.0 mg/kg/injection, schedule: Q01DX001 (ip), vehicle: saline with Tween-80) was 108 % of control.

With C[n+]1ccccc1/C=C/c1cccc([N+](=O)[O-])c1 the T/C (dose: 5.0 mg/kg/injection, schedule: Q01DX009 (ip), vehicle: saline with Tween-80) was 100 % of control, the T/C (dose: 10.0 mg/kg/injection, schedule: Q01DX009 (ip), vehicle: saline with Tween-80) was 109 % of control and the T/C (dose: 20.0 mg/kg/injection, schedule: Q01DX009 (ip), vehicle: saline with Tween-80) was 100 % of control.

COC1=Cc2c(oc3c(C(C)(C)C)cc(OC)cc23)OC(C(C)(C)C)=C1 was tested, and the T/C [11] was 104 % of control, the T/C [12] was 100 % of control and the T/C [13] was 100 % of control.

For CC1=CC(=O)C(O)C2(C)C1CC1OC(=O)C(O)C3(O)C4(C)OCC13C2C(O)C4O (centres undefined), the T/C (dose: 0.19 mg/kg/injection, schedule: Q01DX009 (ip), vehicle: saline + alcohol) was 102 % of control, the T/C (dose: 0.38 mg/kg/injection, schedule: Q01DX009 (ip), vehicle: saline + alcohol) was 105 % of control and the T/C (dose: 0.75 mg/kg/injection, schedule: Q01DX009 (ip), vehicle: saline + alcohol) was 119 % of control. For the same compound, the T/C (dose: 1.5 mg/kg/injection, schedule: Q01DX009 (ip), vehicle: saline + alcohol) was 105 % of control and 112 % of control.

O=C([Se][Se]C(=O)c1ccccc1)c1ccccc1 was tested, and the T/C (dose: 6.25 mg/kg/injection, schedule: Q01DX009 (ip), vehicle: saline with Tween-80) was 101 % of control, the T/C (dose: 12.5 mg/kg/injection, schedule: Q01DX009 (ip), vehicle: saline with Tween-80) was 107 % of control and the T/C (dose: 25.0 mg/kg/injection, schedule: Q01DX009 (ip), vehicle: saline with Tween-80) was 107 % of control.

In the case of CCCCCCC[N+]1(CC)CCCCC1, the T/C (dose: 6.25 mg/kg/injection, schedule: Q01DX009 (ip), vehicle: saline) is reported as 104 % of control, the T/C [14] is reported as 106 % of control and the T/C [15] is reported as 115 % of control.

For CCCCCCCCCCCCCCCCCS(=O)S(=O)O (centres undefined), the T/C (dose: 50.0 mg/kg/injection, schedule: Q01DX009 (ip), vehicle: saline with Tween-80) was 113 % of control, the T/C (dose: 100.0 mg/kg/injection, schedule: Q01DX009 (ip), vehicle: saline with Tween-80) was 118 % of control and the T/C (dose: 100.0 mg/kg/injection, schedule: Q04DX003 (ip), vehicle: Klucel (hydroxypropylcellulose) (HPC)) was 100 % of control. For the same compound, the T/C (dose: 200.0 mg/kg/injection, schedule: Q01DX009 (ip), vehicle: saline with Tween-80) was 122 % of control, the T/C (dose: 200.0 mg/kg/injection, schedule: Q04DX003 (ip), vehicle: Klucel (hydroxypropylcellulose) (HPC)) was 109 % of control and the T/C (dose: 400.0 mg/kg/injection, schedule: Q04DX003 (ip), vehicle: Klucel (hydroxypropylcellulose) (HPC)) was 113 % of control.

N=C(N)SCCSC(=N)N was tested, and the T/C (dose: 25.0 mg/kg/injection, schedule: Q01DX009 (ip), vehicle: saline sonified) was 90 % of control, the T/C (dose: 50.0 mg/kg/injection, schedule: Q01DX009 (ip), vehicle: saline sonified) was 109 % of control and the T/C (dose: 100.0 mg/kg/injection, schedule: Q04DX002 (ip), vehicle: saline) was 100 % of control. The T/C (dose: 200.0 mg/kg/injection, schedule: Q04DX002 (ip), vehicle: saline) was 100 % of control.

In the case of FC(F)(F)c1cccc(NC(=S)SCc2ccc(Cl)c(Cl)c2)c1, the T/C [14] is reported as 95 % of control, the T/C [15] is reported as 89 % of control and the T/C [11] is reported as 90 % of control. For the same compound, the T/C (dose: 50.0 mg/kg/injection, schedule: Q01DX009 (ip), vehicle: suspension in saline) was 89 % of control, the T/C [12] was 90 % of control and the T/C [13] was 100 % of control. For the same compound, the T/C (dose: 200.0 mg/kg/injection, schedule: Q01DX009 (ip), vehicle: suspension in saline) was 97 % of control.

In the case of C=CCO[C@H]1CO[C@H]2[C@@H]1OC[C@H]2OCC=C, the T/C [1] is reported as 96 % of control, the T/C [2] is reported as 97 % of control and the T/C [3] is reported as 99 % of control.

For O=c1c(Cc2ccccc2)coc2ccccc12, the T/C [5] was 106 % of control, the T/C [6] was 100 % of control and the T/C [7] was 103 % of control.

In the case of Cc1cc(NCCCCCCNc2cc(C)nc3cc(N)ccc23)c2ccc(N)cc2n1, the T/C (dose: 25.0 mg/kg/injection, schedule: Q01DX009 (ip), vehicle: other) is reported as 150 % of control and 158 % of control.

Cc1nc(C(=O)O)c(C)c(=O)[nH]1 was tested, and the T/C (dose: 0.78 mg/kg/injection, schedule: Q01DX009 (ip), vehicle: water) was 96 % of control, the T/C (dose: 0.78 mg/kg/injection, schedule: Q04DX003 (ip), vehicle: water) was 91 % of control and the T/C (dose: 1.56 mg/kg/injection, schedule: Q01DX009 (ip), vehicle: water) was 96 % of control. The T/C (dose: 1.56 mg/kg/injection, schedule: Q04DX003 (ip), vehicle: water) was 91 % of control, the T/C (dose: 3.13 mg/kg/injection, schedule: Q01DX009 (ip), vehicle: water) was 112 % of control and the T/C (dose: 3.13 mg/kg/injection, schedule: Q04DX003 (ip), vehicle: water) was 98 % of control. The T/C (dose: 6.25 mg/kg/injection, schedule: Q01DX009 (ip), vehicle: water) was 119 % of control, the T/C (dose: 6.25 mg/kg/injection, schedule: Q04DX003 (ip), vehicle: water) was 100 % of control and the T/C (dose: 12.5 mg/kg/injection, schedule: Q01DX009 (ip), vehicle: water) was 114 % of control. The T/C (dose: 12.5 mg/kg/injection, schedule: Q04DX003 (ip), vehicle: water) was 101 % of control.

For S=C(NCCl)NCc1ccccc1, the T/C [8] was 105 % of control, the T/C [9] was 100 % of control and the T/C [10] was 105 % of control.

With O=C(Nc1cccc2c(NC(=O)N3CCCCC3)cccc12)N1CCCCC1 the T/C (dose: 15.0 mg/kg/injection, schedule: Q01DX005 (ip), vehicle: saline with Tween-80) was 94 % of control, the T/C [4] was 93 % of control and the T/C [6] was 86 % of control. For the same compound, the T/C [7] was 100 % of control.
